Results from patent US8927717B1, “Thiochromeno[2,3-c]quinolin-12-one derivatives, preparation method and application thereof” (National Defense Medical Center, priority 2014, dated 2015).

Key:
[1] = target: T1, TOP II (Topoisomerase II) (Homo sapiens, UniProt P11388); experiment: TOP II-catalyzed relaxation of plasmid DNA assay; type: biochemical
T1 construct: purchased TopoGEN TG-2000H-1
Description: We also performed TOP II-catalyzed relaxation of plasmid DNA assays (FIG. 5-7) to evaluate if compounds could inhibit TOP II. […] The IC50 value of compounds 7, N7, N8, N14, N15, N18, and N19 were about 10, 10, 1, 10, 5, 1, and 1 μM, respectively (detect by TopoGEN TG2005H, TG-2000H-1).

[2] = test system: MOLT-4; type: cell-based; conditions: MOLT-4
[3] = test system: A549/ATCC; type: cell-based; conditions: A549/ATCC
[4] = test system: HOP-92; type: cell-based; conditions: HOP-92
[5] = test system: NCI-H23; type: cell-based; conditions: NCI-H23
[6] = test system: HCC-2998; type: cell-based; conditions: HCC-2998
[7] = test system: SF-268; type: cell-based; conditions: SF-268
[8] = test system: SF-539; type: cell-based; conditions: SF-539
[9] = test system: MALME-3M; type: cell-based; conditions: MALME-3M
[10] = test system: MDA-MB-435; type: cell-based; conditions: MDA-MB-435
[11] = test system: SK-MEL-2; type: cell-based; conditions: SK-Mel-2
[12] = test system: UACC-257; type: cell-based; conditions: UACC-257
[13] = test system: UACC-62; type: cell-based; conditions: UACC-62
[14] = test system: IGROV1; type: cell-based; conditions: IGROV1
[15] = test system: OVCAR-3; type: cell-based; conditions: OVCAR-3, five dose
[16] = test system: OVCAR-4; type: cell-based; conditions: OVCAR-4
[17] = test system: 786-0; type: cell-based; conditions: 786-0
[18] = test system: ACHN; type: cell-based; conditions: ACHN
[19] = test system: CAKI-1; type: cell-based; conditions: CAKI-1, five dose
[20] = test system: UO-31; type: cell-based; conditions: UO-31
[21] = test system: MDA-MB-486; type: cell-based; conditions: MDA-MB-486
[22] = target: T2, TOP I (Topoisomerase I) (Homo sapiens, UniProt P11387); experiment: TOP I mediated supercoiled DNA relaxation assay; type: biochemical; conditions: five different concentrations; TopoGEN TG2005H, TG-2000H-1
T2 construct: purchased TopoGEN TG2005H
T2 sequence (P11387 1-765): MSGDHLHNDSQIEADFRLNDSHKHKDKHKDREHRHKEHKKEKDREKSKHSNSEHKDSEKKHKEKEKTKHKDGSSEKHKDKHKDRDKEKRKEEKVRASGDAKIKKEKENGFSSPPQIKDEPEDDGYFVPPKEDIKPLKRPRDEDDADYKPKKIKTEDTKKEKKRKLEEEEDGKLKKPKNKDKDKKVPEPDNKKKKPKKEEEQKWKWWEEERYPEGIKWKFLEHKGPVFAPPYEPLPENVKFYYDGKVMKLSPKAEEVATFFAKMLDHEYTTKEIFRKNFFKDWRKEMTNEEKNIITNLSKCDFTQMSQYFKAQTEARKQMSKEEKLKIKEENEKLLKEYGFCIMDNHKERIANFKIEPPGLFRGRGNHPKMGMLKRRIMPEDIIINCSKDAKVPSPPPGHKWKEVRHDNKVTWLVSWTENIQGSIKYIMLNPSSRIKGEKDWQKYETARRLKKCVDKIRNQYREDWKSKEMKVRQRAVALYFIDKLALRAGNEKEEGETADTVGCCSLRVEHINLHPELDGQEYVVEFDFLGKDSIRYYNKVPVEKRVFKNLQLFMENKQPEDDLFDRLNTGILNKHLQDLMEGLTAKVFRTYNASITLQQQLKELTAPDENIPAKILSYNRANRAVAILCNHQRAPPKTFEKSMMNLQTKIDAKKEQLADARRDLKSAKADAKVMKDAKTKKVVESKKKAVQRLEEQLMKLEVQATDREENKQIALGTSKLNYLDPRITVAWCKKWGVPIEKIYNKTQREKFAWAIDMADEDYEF

[23] = Homo sapiens, five dose, read-out: LC50 (the source's name)

T1 sequence (P11388 whole entry): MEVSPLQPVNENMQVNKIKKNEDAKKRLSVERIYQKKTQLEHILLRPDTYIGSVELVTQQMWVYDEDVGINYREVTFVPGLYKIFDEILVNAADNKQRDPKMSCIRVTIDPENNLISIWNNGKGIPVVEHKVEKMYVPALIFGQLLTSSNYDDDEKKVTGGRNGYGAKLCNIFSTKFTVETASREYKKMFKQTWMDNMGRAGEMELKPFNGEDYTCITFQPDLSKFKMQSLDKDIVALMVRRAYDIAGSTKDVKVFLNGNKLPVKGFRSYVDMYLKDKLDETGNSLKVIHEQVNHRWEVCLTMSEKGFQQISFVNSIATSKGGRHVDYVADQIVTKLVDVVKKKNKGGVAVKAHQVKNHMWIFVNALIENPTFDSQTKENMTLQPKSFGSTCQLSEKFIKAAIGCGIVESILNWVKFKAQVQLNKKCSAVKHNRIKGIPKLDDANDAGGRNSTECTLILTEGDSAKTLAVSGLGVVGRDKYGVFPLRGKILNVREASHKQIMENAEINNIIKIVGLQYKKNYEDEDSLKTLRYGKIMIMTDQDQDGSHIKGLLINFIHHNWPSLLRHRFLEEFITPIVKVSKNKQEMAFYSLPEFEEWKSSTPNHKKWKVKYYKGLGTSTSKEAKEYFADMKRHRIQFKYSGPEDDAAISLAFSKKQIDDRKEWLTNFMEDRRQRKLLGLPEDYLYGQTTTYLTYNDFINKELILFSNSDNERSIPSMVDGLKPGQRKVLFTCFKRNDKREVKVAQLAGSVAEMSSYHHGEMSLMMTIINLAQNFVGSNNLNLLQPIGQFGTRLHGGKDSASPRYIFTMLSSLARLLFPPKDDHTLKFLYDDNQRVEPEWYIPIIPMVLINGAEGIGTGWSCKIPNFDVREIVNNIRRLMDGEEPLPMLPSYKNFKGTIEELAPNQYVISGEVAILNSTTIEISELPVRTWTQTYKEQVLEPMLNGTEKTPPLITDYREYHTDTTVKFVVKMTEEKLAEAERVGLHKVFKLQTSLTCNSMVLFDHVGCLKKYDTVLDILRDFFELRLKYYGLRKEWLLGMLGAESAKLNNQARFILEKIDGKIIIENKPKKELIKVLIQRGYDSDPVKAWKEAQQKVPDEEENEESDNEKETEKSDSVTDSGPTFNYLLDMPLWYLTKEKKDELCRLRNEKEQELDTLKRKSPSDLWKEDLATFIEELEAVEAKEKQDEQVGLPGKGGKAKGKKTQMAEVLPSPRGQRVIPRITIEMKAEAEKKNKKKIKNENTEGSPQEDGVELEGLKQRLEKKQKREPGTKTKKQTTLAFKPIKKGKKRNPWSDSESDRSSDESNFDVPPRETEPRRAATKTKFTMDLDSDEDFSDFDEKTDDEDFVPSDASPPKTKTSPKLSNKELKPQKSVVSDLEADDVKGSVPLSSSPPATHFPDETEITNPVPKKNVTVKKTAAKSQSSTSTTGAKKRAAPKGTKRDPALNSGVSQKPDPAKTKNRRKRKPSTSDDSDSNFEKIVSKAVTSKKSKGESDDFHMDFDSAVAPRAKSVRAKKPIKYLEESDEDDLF

## O=c1c2cc(Cl)ccc2sc2c(NCCCNCCO)nc3ccccc3c12 [Compound N19, 10-Chloro-6-((3-((2-hydroxyethyl)amino)propyl)amino)-12H-thiochromeno[2,3-c]quinolin-12-one]
[1]; five different concentrations, TopoGEN TG2005H, TG-2000H-1, read-out: IC50 value, TOP II mediated supercoiled DNA relaxation
  IC50: ~1 µM
[1]; primary assay at 25 and/or 50 μM
  inhibitory effect in TOP II relaxation assay compared with VP-16: more potent inhibitory effects than the positive agent VP-16
[2]; Homo sapiens, five dose
  GI50: 1.88 µM
[2]; 10^−5 molar
  Growth percent: −47.57%
[3]; 10^−5 molar
  Growth percent: −64.45%
[3]; five dose
  TGI: 3.30 µM
[3]; Homo sapiens, five dose
  GI50: 1.76 µM
[4]; 10^−5 molar
  Growth percent: 23.01%
[4]; five dose
  TGI: 4.58 µM
[4]; Homo sapiens, five dose
  GI50: 1.23 µM
[5]; Homo sapiens, five dose
  GI50: 1.89 µM
[5]; 10^−5 molar
  Growth percent: 54.26%
[5]; five dose
  TGI: 3.68 µM
[6]; 10^−5 molar
  Growth percent: −74.47%
[6]; five dose
  TGI: 3.42 µM
[6]; Homo sapiens, five dose
  GI50: 1.58 µM
[7]; Homo sapiens, five dose
  GI50: 1.67 µM
[7]; 10^−5 molar
  Growth percent: 17.28%
[7]; five dose
  TGI: 3.35 µM
[8]; Homo sapiens, five dose
  GI50: 1.7 µM
[8]; 10^−5 molar
  Growth percent: −47.59%
[8]; five dose
  TGI: 3.22 µM
[9]; Homo sapiens, five dose
  GI50: 2.15 µM
[9]; 10^−5 molar
  Growth percent: −34.30%
[9]; five dose
  TGI: 4.33 µM
[10]; Homo sapiens, five dose
  GI50: 1.59 µM
[10]; [23]
  CC50: 5.62 µM
[10]; 10^−5 molar
  Growth percent: −88.95%
[10]; five dose
  TGI: 2.99 µM
[11]; Homo sapiens, five dose
  GI50: 2.05 µM
[11]; 10^−5 molar
  Growth percent: 53.64%
[11]; five dose
  TGI: 3.77 µM
[12]; Homo sapiens, five dose
  GI50: 1.86 µM
[12]; [23]
  CC50: 6.33 µM
[12]; 10^−5 molar
  Growth percent: 45.70%
[12]; five dose
  TGI: 3.44 µM
[13]; Homo sapiens, five dose
  GI50: 1.81 µM
[13]; [23]
  CC50: 6.39 µM
[13]; 10^−5 molar
  Growth percent: −77.63%
[13]; five dose
  TGI: 3.40 µM
[14]; Homo sapiens, IGROV-1, five dose
  GI50: 1.66 µM
[14]; 10^−5 molar
  Growth percent: −43.25%
[14]; five dose
  TGI: 3.60 µM
[15]; Homo sapiens
  GI50: 1.79 µM
[15]
  TGI: 3.51 µM
[16]; Homo sapiens, five dose
  GI50: 1.6 µM
[16]; 10^−5 molar
  Growth percent: 12.32%
[16]; five dose
  TGI: 3.23 µM
[17]; 10^−5 molar
  Growth percent: −17.60%
[17]; five dose
  TGI: 3.37 µM
[17]; Homo sapiens, five dose
  GI50: 1.72 µM
[18]; 10^−5 molar
  Growth percent: −96.96%
[18]; five dose
  TGI: 3.22 µM
[18]; Homo sapiens, five dose
  GI50: 1.67 µM
[19]
  TGI: 2.69 µM
[19]; Homo sapiens
  GI50: 1.33 µM
[19]; Homo sapiens, read-out: LC50 (the source's name)
  CC50: 5.45 µM
[20]; Homo sapiens, five dose
  GI50: 1.36 µM
[20]; [23]
  CC50: 6.35 µM
[20]; 10^−5 molar
  Growth percent: 24.54%
[20]; five dose
  TGI: 2.94 µM
[21]; 60 cell, five dose
  GI50: 1.06 µM
[21]; 60 cell, five dose, read-out: LC50 (the source's name)
  CC50: 6.2 µM
[21]; 10^−5 molar
  Growth percent: −24.00%
[21]; five dose
  TGI: 2.56 µM
[22]
  IC50: ~5 µM
